Usually IC50 stands for the point on the concentration scale where inhibition reaches its midpoint. Usually clearance stands for the volume of plasma or blood freed of the substance per unit of time. A low value points to inefficient removal. As a reminder, the bioavailability is the share of a dose that reaches the circulation, judged against a reference dose that is usually intravenous. A lower bioavailability goes with little systemic uptake.

Calls of active or inactive are those of the source. No cut-off for these calls is given here.

The target in data set [1] is Protein smoothened (Homo sapiens, UniProt Q99835). Nature of the data set: Antagonist activity at human SMO expressed in HEPM cells assessed as reduction of GLI expression after 24 hrs by Quantigene assay. The class given is functional, cell-based.
Sequence of Protein smoothened (Homo sapiens, UniProt Q99835) (Q99835 whole entry): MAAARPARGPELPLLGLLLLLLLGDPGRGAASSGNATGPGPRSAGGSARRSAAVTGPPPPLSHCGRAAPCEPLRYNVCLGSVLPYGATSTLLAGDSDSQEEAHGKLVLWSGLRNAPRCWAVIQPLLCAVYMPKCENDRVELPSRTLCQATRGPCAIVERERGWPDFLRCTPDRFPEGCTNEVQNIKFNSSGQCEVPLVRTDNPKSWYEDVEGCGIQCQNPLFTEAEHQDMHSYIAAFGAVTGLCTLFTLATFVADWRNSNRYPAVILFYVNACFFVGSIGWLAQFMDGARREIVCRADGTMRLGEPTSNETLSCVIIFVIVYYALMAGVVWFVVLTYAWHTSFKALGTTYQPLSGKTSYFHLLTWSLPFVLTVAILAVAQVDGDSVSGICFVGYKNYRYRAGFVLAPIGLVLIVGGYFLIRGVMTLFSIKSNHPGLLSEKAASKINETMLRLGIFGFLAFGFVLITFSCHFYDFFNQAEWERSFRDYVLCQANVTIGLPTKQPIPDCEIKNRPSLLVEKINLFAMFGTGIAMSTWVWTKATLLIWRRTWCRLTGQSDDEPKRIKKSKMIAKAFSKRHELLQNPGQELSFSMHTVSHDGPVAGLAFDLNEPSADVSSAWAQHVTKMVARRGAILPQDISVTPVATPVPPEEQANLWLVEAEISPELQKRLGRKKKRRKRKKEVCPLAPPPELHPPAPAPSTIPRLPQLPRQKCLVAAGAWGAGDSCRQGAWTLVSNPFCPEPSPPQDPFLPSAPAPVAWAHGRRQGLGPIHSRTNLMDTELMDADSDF
A short description of data set [2]: Clearance in rat at 0.5 mg/kg, iv. The class given is ADME, organism-based. Also noted: dose 0.5 mg/kg, route intravenous. The conditions noted are these: in vivo.
Data set [3] in a line: Oral bioavailability in rat at 5 mg/kg. Type of data set: ADME, organism-based. The conditions noted are these: in vivo.
The target in data set [4] is Protein smoothened (Mus musculus, UniProt P56726). Nature of the data set: Antagonist activity at mouse SMO expressed in NIH/3T3 cells transfected with Gli-dependent luciferase-reporter after 15 hrs by luciferase reporter gene assay using luminometer. Type of data set: functional, cell-based.
Sequence of Protein smoothened (Mus musculus, UniProt P56726) (P56726 whole entry): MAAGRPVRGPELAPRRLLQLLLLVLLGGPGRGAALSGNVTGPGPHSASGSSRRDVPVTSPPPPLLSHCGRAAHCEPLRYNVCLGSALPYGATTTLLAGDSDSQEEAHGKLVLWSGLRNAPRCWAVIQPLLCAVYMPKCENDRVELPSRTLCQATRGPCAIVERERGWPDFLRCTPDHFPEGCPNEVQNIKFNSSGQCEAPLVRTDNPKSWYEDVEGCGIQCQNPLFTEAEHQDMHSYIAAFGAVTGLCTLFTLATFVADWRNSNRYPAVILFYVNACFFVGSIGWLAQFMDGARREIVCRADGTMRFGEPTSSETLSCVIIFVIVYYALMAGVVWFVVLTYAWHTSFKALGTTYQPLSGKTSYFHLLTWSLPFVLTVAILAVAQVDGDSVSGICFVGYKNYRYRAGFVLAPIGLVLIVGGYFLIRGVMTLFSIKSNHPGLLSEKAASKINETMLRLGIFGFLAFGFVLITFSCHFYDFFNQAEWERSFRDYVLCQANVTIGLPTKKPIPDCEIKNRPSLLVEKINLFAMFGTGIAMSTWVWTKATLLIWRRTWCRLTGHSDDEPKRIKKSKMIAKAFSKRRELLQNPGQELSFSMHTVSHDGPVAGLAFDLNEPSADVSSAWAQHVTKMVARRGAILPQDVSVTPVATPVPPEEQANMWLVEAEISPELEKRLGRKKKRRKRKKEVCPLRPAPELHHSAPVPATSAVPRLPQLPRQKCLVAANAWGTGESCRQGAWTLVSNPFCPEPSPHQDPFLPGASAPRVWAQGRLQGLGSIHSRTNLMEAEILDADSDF
A short description of data set [5]: Clearance in rat liver microsomes assessed as compound metabolized after 30 mins. The conditions noted are these: read-out: Activity. The class given is ADME, Microsome. Background: Microsomes from liver hold many membrane-bound enzymes, among them those of drug oxidation.
Data set [6] has as its target Protein smoothened (Rattus norvegicus) (UniProt P97698). Nature of the data set: Antagonist activity at SMO in rat hepatocyte. The class given is functional, cell-based.
Data set [7] in a line: Metabolic stability in rat hepatocyte assessed as compound remaining at 30 mins. The conditions noted are these: hepatocytes, read-out: Stability. The class given is ADME, cell-based.

Sequence of Protein smoothened (Rattus norvegicus) (P97698 whole entry): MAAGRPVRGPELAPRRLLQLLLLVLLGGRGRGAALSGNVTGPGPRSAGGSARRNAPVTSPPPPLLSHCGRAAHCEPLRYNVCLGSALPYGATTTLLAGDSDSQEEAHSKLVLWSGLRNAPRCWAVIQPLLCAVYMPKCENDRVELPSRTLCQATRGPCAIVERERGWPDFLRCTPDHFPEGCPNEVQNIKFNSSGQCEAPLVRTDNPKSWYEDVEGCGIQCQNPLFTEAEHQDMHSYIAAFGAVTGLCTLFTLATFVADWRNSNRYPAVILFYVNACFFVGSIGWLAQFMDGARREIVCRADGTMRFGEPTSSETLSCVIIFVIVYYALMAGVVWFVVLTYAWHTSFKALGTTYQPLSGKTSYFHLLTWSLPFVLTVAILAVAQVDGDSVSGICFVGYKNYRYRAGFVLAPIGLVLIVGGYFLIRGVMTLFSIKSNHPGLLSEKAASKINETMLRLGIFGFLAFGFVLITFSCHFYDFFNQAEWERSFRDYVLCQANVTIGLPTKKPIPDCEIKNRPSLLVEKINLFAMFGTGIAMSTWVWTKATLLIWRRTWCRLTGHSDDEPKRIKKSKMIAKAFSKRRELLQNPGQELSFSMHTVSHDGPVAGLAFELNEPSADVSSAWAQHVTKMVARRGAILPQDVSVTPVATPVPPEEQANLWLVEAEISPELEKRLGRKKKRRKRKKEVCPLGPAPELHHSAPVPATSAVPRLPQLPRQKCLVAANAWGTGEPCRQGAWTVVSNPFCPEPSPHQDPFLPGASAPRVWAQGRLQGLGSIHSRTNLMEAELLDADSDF

For the compound `O=C(Nc1ccc(-c2ccnc(-c3ccccc3)n2)cc1)c1ccccc1Cl`, at Protein smoothened [1], the IC50 was 27 nM. With `O=C(Nc1ccc(CC(O)c2ccccc2)cc1)c1ccccc1Cl` (racemic), the IC50 on Protein smoothened [1] was found to be 14 nM. In data set [2], `O=C(Nc1ccc(-c2nc(-c3ccccc3)c(C(F)(F)F)o2)cc1)c1ccccc1Cl` had a clearance of 3.83 mL/min/kg. The bioavailability in data set [3] came to 47%. In addition, the IC50 is 31 nM at Protein smoothened [1] and 17 nM against Protein smoothened [4]. In addition, the metabolised at 0.5 h in data set [5] was under 10%.

In the case of `O=C(Nc1ccc(-c2coc(-c3ccccc3)n2)cc1)c1ccccc1Cl`, the IC50 at Protein smoothened [1] came out at 93 nM. As to `O=C(Nc1ccc(-c2cccc(-c3ccccc3)c2)cc1)c1ccccc1Cl`, on Protein smoothened [1], the IC50 came to 6.4 nM. Same read-out and setting: with `O=C(Nc1ccc(-c2ncc(-c3ccccc3)o2)cc1)c1ccccc1Cl` the figure was 40 nM. Regarding `O=C(Nc1ccc(-c2cccc(-c3ccccc3)n2)cc1)c1ccccc1Cl`, the IC50 at Protein smoothened [1] is 33 nM. With `CC(=O)Nc1ccc(NC(=O)c2ccccc2Cl)cc1`, the inhibition result in data set [6] is “inactive”. As for `O=C(Nc1ccc(-c2nc(-c3ccccc3)co2)cc1)c1ccccc1Cl`, the IC50 on Protein smoothened [1] was found to be 63 nM. As for `O=C(Cc1ccc(NC(=O)c2ccccc2Cl)cc1)c1ccccc1`, at Protein smoothened [1], the IC50 came out at 79 nM. On the same count and under the same terms, with `O=C(Nc1ccc(-c2csc(-c3ccccc3)n2)cc1)c1ccccc1Cl` the figure was 109 nM. Still for that read-out and setting: to `Cc1oc(-c2ccc(NC(=O)c3ccccc3Cl)cc2)nc1-c1ccccc1` belongs 44 nM; to `O=C(Nc1ccc(-c2nnc(-c3ccccc3)o2)cc1)c1ccccc1Cl`, 89 nM; to `O=C(Nc1ccc(-c2ccnc(-c3ccccc3)c2)cc1)c1ccccc1Cl`, 93 nM. Same read-out and setting: to `O=C(Nc1ccc(-c2nccc(-c3ccccc3)n2)cc1)c1ccccc1Cl` belongs 37 nM. For `O=C(Nc1ccc(/C=C/c2ccccc2)cc1)c1ccccc1Cl`, the IC50 at Protein smoothened [1] amounted to 49 nM. Take `O=C(Nc1ccc(-c2cncc(-c3ccccc3)c2)cc1)c1ccccc1Cl`: the 50% inhibitory concentration (IC50) at Protein smoothened [1] is 28 nM. As for `O=C(Nc1ccc(-c2cc(-c3ccccc3)ncn2)cc1)c1ccccc1Cl`, the IC50 on Protein smoothened [1] was determined as 48 nM. As for `O=C(Nc1ccc(-c2cc(-c3ccccc3)ccn2)cc1)c1ccccc1Cl`, the clearance in data set [2] is 2.83 mL/min/kg. Also, the bioavailability in data set [3] is 27%. For the same compound, the IC50 at Protein smoothened [1] was found to be 7.2 nM; at Protein smoothened [4], 26 nM. The metabolised at 0.5 h in data set [5] was 41%. Compound `O=C(Nc1ccc(NC(=O)c2ccccc2Cl)cc1)c1ccccc1` had a clearance in data set [2] of 23.3 mL/min/kg. The compound further came in with a bioavailability in data set [3] of 12%. Besides, the remaining at 0.5 h in data set [7] was 3%. Also, at Protein smoothened [1], the IC50 turned out to be 13 nM. Moreover, the metabolised at 0.5 h in data set [5] is under 10%. Regarding `O=C(Nc1ccc(-c2nc(-c3ccccc3)cs2)cc1)c1ccccc1Cl`, the IC50 at Protein smoothened [1] stood at 27 nM.

The record behind these values is ChEMBL document CHEMBL1821579, “Discovery of amide replacements that improve activity and metabolic stability of a bis-amide smoothened antagonist hit” (Bioorg Med Chem Lett, 2011).
